Data as given in patent US9861640B2, “Medicament for treatment of Alzheimer's disease” (KEMPHYS LTD., priority 2013, dated 2018).

Experiments:
nitric oxide production = details: in vitro [72, 73]; cited from earlier work
RARβ and IL-4Rα mRNAs = details: murine dendritic cells [66]; cited from earlier work
APP/PS1 mice = details: cited from earlier work
TNF-α = details: in vitro, Aβ peptide-activated [72]; cited from earlier work
RXR = details: 20 mg/kg; RXR-specific reporter transgene [48]; cited from earlier work
IDE = details: murine microglial cells [17]; cited from earlier work
Tg2576 mice = details: T-maze spontaneous alternation and Nest building tests [17]; cited from earlier work
[1] = mice [17]; cited from earlier work
rat primary microglia = assay: Clearance of 125I-labeled oligomeric Aβ1-42 by rat primary microglia; format: cell-based
From the text: (§1) Primary microglia (type 1) were harvested from primary mixed glial cell cultures prepared from neonatal Wistar rat pups, as previously reported. Mouse microglial cell line MG5 and mouse glial cell line A1 were maintained as previously described. Mouse neuroblastoma cell line N1E-115 and Neuro 2a (American Type Culture Collection, Manassas, Va., USA) were maintained in Dulbecco's modified Eagle's medium (DMEM) supplemented with 10% fetal bovine serum (FBS), 20 U/ml penicillin (Invitrogen, Gaithersburg, Md., USA), and 20 μg/ml streptomycin (Invitrogen). Primary rat microglia were treated with Am80 (5 μM) and/or HX630 (5 μM) in the presence and absence of GW9662 (10 μM) for 48 h in Eagle's MEM supplemented with 10% FBS and 0.2% glucose. MG5 cells and A1 cells were treated with Am80 (5 μM) and/or HX630 (5 μM) for 48 h in DMEM containing 10% FBS. N1E-115 cells were treated with Am80 (5 μM) and/or HX630 (5 μM) for 5 days in DMEM containing 2% FBS.
^125I-Labeled oligomeric Aβ1-42 (o-Aβ1-42) was prepared as described. Cells were cultured in 24-well plates for 48 h in Eagle's MEM supplemented with 10% FBS in the presence or absence of Am80 (5 μM) and HX630 (5 μM). After the 48-h treatment, the cells were washed twice with labeling medium (DMEM containing 3% BSA) and then incubated with ^125I-labeled o-Aβ1-42 for 6 h at 37° C. Following the 6-h incubation, medium was removed from each well, and soluble radioactivity in TCA (degraded and extracellularly released peptide fragments) was determined as an index of Aβ degradation in the medium as described previously. The Aβ degradation activity may thus include both receptor-mediated phagocytic activity and extracellular protease-mediated degradation. Cells were washed three times with PBS, then lysed with 0.4 ml of 0.1 M NaOH for 30 min at 37° C., and cell-associated (including cell-incorporated) radioactivity and cell proteins were determined with an autogamma counter and the BCA Protein Assay Reagent (Pierce), respectively. We could not determine the activity of IDE-dependent degradation in this medium, because the incubation medium was replaced with labeling medium prior to incubation with ^[…].

CD36 = assay: Immunoblot of CD36 in rat primary microglia; format: cell-based; details: rat primary microglia; co-incubation of GW9662 (10 μM) with HX630 (5 μM), 48 h
From the text: as §1, with “N1E-115 cells were treated with Am80 (5 μM) and/or HX630 (5 μM) for 5 days in DMEM containing 2% FBS.” left out
Rat primary microglia and mouse microglial MG5 cells (5×10^6 cells per 100-mm dish) were homogenized in RIPA buffer [10 mM Hepes-NaOH (pH 7.4) containing 150 mM NaCl, 1 mM EDTA, 1% Triton X-100, 0.5% sodium deoxycholate, 0.1% SDS, 1 mM PMSF, 1 mg/ml leupeptin. […] Bound horseradish peroxidase-labeled antibodies were then detected via chemiluminescence (an ECL kit; Pierce, Rockford, Ill., USA). Protein concentrations were determined with the BCA Protein Assay Reagent (Pierce) and Bradford Protein Assay Reagent (Pierce).

RARs = details: at higher concentrations [49]; cited from earlier work

CC1=C(/C=C/C(C)=C/C=C/C(C)=C/C(=O)O)C(C)(C)CCC1 [ATRA, all trans retinoic acid]
inhibition of nitric oxide production (nitric oxide production): complete inhibition | mRNAs encoding RARβ and IL-4Rα (RARβ and IL-4Rα mRNAs): markedly increased | memory function in APP/PS1 mice (APP/PS1 mice; ATRA alone [14]): improved memory function | inhibitory effect on TNF-α production (TNF-α): 40-50% | activation of RXR in vivo (RXR): activates RXR

CC1(C)CCC(C)(C)c2cc(C(=O)Nc3ccc(C(=O)O)cc3)ccc21 [Am580, 4-{(5,6,7,8-tetrahydro5,5,8,8-tetramethyl-2-naphthalenyl)carboxamido}benzoic acid]
IDE activity in the medium (IDE): increased | cognitive deficits in Tg2576 mice (Tg2576 mice): ameliorated cognitive deficits | crossing of the BBB [1]: crosses the BBB

fucoidan
effect on the HX630- and Am80/HX630-induced increase of o-Aβ1-42 degradation activity (rat primary microglia; fucoidan 100 μg/ml): inhibited

insulin: an IDE inhibitor
effect on cell-association and degradation activities in Am80/HX630-treated cells (rat primary microglia; insulin 100 μg/ml): inhibited

O=C(Nc1ccccc1)c1cc([N+](=O)[O-])ccc1Cl [GW9662]
effect on the HX630-induced increase in CD36 expression (CD36): inhibited

O=C(O)CNC(=O)C(CS)Cc1ccccc1 (centres unmarked) [thiorphan]
effect on degradation activity in Am80/HX630-treated cells (rat primary microglia; thiorphan 30 μM): did not affect

C=C(c1ccc(C(=O)O)cc1)c1cc2c(cc1C)C(C)(C)CCC2(C)C [bexarotene]
behavioral defects in APP/PS1 mice (APP/PS1 mice; mouse, in vivo): improved behavioral defects | cross-reactivity with RARs (RARs): cross-reactivity
